Measurements reported in patent US9133492B2, “Kanamycin compound, kanamycin-producing Streptomyces species bacterium, and method of producing kanamycin” (iNtRON Biotechnology, Inc., priority 2010, dated 2015).
In brackets after ≈: the same amount, converted by molar mass. Where two headings read alike, the source gives them in different places.

Key:
[1] = test system: P. aeruginosa ATCC 27853(Kan^R); experiment: microbe, parasite or virus in culture; assay type: cell-based; conditions: Pseudomonas aeruginosa, ATCC27853
Procedure: (§1) In one embodiment of the present invention, antibacterial spectra against kanamycin intermediates and analogs produced by the present invention were measured. Typical gram-negative strains (E. coli and Pseudomonas aeruginosa) and four clinically isolated strains were employed to check the antibacterial spectra (See table 2).
(§2) To check the antibacterial spectra of kanamycin biosynthetic intermediates and their analogs, a total six kinds of Gram-negative bacteria such as kanamycin-sensitive (Kan^S) E. coli ATCC 25922, kanamycin-resistant (Kan^R) Pseudomonas aeruginosa ATCC 27853, Kan^S E. coli CCARM (Culture Collection of Antimicrobial Resistant Microbes, Korea) 1A020, Kan^R E. coli CCARM 1A023, amikacin-sensitive (Amk^S) P. aeruginosa CCARM 2206, and amikacin-resistance (Amk^R) P. aeruginosa CCARM 2178 were used.
(§3) Minimum inhibitory concentrations (MICs) of various kanamycin-related pseudodi- and tri-saccharides and AHBA conjugated kanamycin analogs (except for compounds 16, 18, 19, and 20) were measured by broth microdilution according to the Clinical and Laboratory Standard Institute (CLSI, formerly NCCLS). As described in Example 2, gram-negative E. coli strains, P. aeruginosa strains, and clinically isolated strains were incubated in Mueller-Hinton broth (BD Science) at 30° C. […] An aliquot of water was used as a negative control group. The growth of the strains was observed using the Labsystems Bioscreen C, and the minimum concentrations of the aminoglycoside diluted in the broth medium to inhibit the growth of the bacterial strains were measured.

[2] = test system: E. coli ATCC 25922(Kan^S); experiment: microbe, parasite or virus in culture; assay type: cell-based, Escherichia coli
Procedure: as §1, §2, §3

[3] = test system: P. aeruginosa CCARM 2206(Amk^S); experiment: MIC by broth microdilution (CLSI), antibacterial spectra; assay type: cell-based, Pseudomonas aeruginosa
Procedure: as §1, §2, §3

[4] = test system: P. aeruginosa CCARM 2178(Amk^R); experiment: as above; assay type: cell-based, Pseudomonas aeruginosa; conditions: for MIC / activity: clinically isolated amikacin-resistant P. aeruginosa strain
Procedure: as §1, §2, §3

[5] = test system: E. coli CCARM 1A023(Kan^R); experiment: as above; assay type: cell-based, Escherichia coli
Procedure: as §1, §2, §3

[6] = test system: E. coli CCARM 1A020(Kan^S); experiment: as above; assay type: cell-based, Escherichia coli
Procedure: as §1, §2, §3

[7] = test system: Gram-negative bacteria (E. coli and Pseudomonas aeruginosa test strains); experiment: Antibacterial spectra, comparison across test strains; assay type: cell-based; conditions: for antibacterial activity, 6′-amino vs 6′-hydroxy pseudodisaccharides: against kanamycin-sensitive E. coli strains, compared with 6′-hydroxy derivatives 3 and 9; for antibacterial activity, 3″-amino vs 3″-hydroxy derivatives: against the test strains, compared with corresponding 3″-hydroxy derivatives 5, 13, 14 and 11; for antibacterial activity, 6′-amino vs 6′-hydroxy pseudotrisaccharides: against kanamycin-sensitive test strains, compared with compounds 6 and 12
Procedure: as §1, §2, §3

[8] = test system: S. venezuelae; experiment: Resistance of S. venezuelae strains to kanamycin; assay type: cell-based, Streptomyces venezuelae
Procedure: As expected, the recombinant heterologous strain expressing kanA-kanB-kanK (DOS strain) produced compound 1 (21.4 μM) (FIG. 2A). To confer resistance to kanamycin in S. venezuelae without modifying the aminoglycoside structure, three resistance genes gtmF-gtmK-gtmL from the gentamicin gene cluster were introduced into the recombinant heterologous strain. Transformants expressing these genes were resistant to >10.0 mg/ml of the commercially available kanamycin compared to 1.0 μg/ml in control strains. These resistance genes were expressed together with the kanamycin biosynthetic genes in the heterologous host in subsequent experiments.

[9] = Pseudomonas aeruginosa, CCARM2206
[10] = Pseudomonas aeruginosa, CCARM2178
[11] = E. coli ATCC 25922, kanamycin-sensitive typical strain
[12] = P. aeruginosa CCARM 2206, amikacin-sensitive clinically isolated strain
[13] = P. aeruginosa CCARM 2178, amikacin-resistant clinically isolated strain
[14] = E. coli CCARM 1A023, kanamycin-resistant clinically isolated strain
[15] = E. coli CCARM 1A020, kanamycin-sensitive clinically isolated strain
[16] = Pseudomonas aeruginosa, CCARM2206, P. aeruginosa CCARM 2206, amikacin-sensitive clinically isolated strain, read-out: MIC
[17] = Pseudomonas aeruginosa, CCARM2178, P. aeruginosa CCARM 2178, amikacin-resistant clinically isolated strain, read-out: MIC
[18] = Escherichia coli, E. coli CCARM 1A023, kanamycin-resistant clinically isolated strain, read-out: MIC

Compound | MIC [2, 11] | MIC [3, 12] | MIC [4, 13] | MIC [5, 14] | MIC [6, 15] | further results
N[C@H]1[C@@H](O[C@H]2[C@H](O)[C@@H](O)[C@H](N)C[C@@H]2N)O[C@H](CO)[C@@H](O)[C@@H]1O [Compound 3, paromamine] |  |  |  |  |  | MIC [1]: > 128 µg/mL; MIC ([2]; Escherichia coli, ATCC25922): 128 µg/mL (≈ 396 µM); MIC [3, 9]: > 128 µg/mL; MIC [4, 10]: > 128 µg/mL; MIC ([5]; Escherichia coli): > 128 µg/mL; MIC ([6]; Escherichia coli): 128 µg/mL (≈ 396 µM)
NC[C@H]1O[C@H](O[C@H]2[C@H](O)[C@@H](O)[C@H](N)C[C@@H]2N)[C@H](N)[C@@H](O)[C@@H]1O [Compound 4, neamine] |  |  |  |  |  | MIC [1]: > 128 µg/mL; MIC ([2]; Escherichia coli, ATCC25922): 64 µg/mL (≈ 199 µM); antibacterial activity, 6′-amino vs 6′-hydroxy pseudodisaccharides [7]: more active; MIC [3, 9]: 128 µg/mL (≈ 397 µM); MIC [4, 10]: > 128 µg/mL; MIC ([5]; Escherichia coli): > 128 µg/mL; MIC ([6]; Escherichia coli): 64 µg/mL (≈ 199 µM)
N[C@H]1[C@@H](O[C@H]2[C@H](O)[C@@H](O[C@H]3O[C@H](CO)[C@@H](O)[C@H](O)[C@H]3O)[C@H](N)C[C@@H]2N)O[C@H](CO)[C@@H](O)[C@@H]1O [Compound 5, 3″-deamino-3″-hydroxykanamycin C] | 128 µg/mL (≈ 264 µM) | NA (NA represents no activity at 128 μg/mL) | NA (NA represents no activity at 128 μg/mL) | NA (NA represents no activity at 128 μg/mL) | NA (NA represents no activity at 128 μg/mL) | 
N[C@@H]1[C@@H](O)[C@@H](O[C@@H]2[C@@H](O)[C@H](O[C@H]3O[C@H](CO)[C@@H](O)[C@H](O)[C@H]3N)[C@@H](N)C[C@H]2N)O[C@H](CO)[C@H]1O [Compound 6, kanamycin C] | 16 µg/mL (≈ 33 µM) | 64 µg/mL (≈ 132 µM) | NA (NA represents no activity at 128 μg/mL) | NA (NA represents no activity at 128 μg/mL) | 16 µg/mL (≈ 33 µM) | antibacterial activity, 3″-amino vs 3″-hydroxy derivatives [7]: increased activity
NC[C@H]1O[C@H](O[C@H]2[C@H](O)[C@@H](O[C@H]3O[C@H](CO)[C@@H](O)[C@H](N)[C@H]3O)[C@H](N)C[C@@H]2N)[C@H](N)[C@@H](O)[C@@H]1O [Compound 7, kanamycin B, reference compound] | 2 µg/mL (≈ 4.14 µM) | 32 µg/mL (≈ 66.2 µM) | NA (NA represents no activity at 128 μg/mL) | NA (NA represents no activity at 128 μg/mL) | 4 µg/mL (≈ 8.27 µM) | antibacterial activity, 6′-amino vs 6′-hydroxy pseudotrisaccharides [7]: more active; antibacterial activity, 3″-amino vs 3″-hydroxy derivatives [7]: increased activity
NC[C@@H]1O[C@@H](O[C@H]2[C@H](O)[C@@H](O[C@H]3O[C@H](CO)[C@@H](O)[C@H](N)[C@H]3O)[C@H](N)C[C@@H]2N)[C@@H](O)[C@H](O)[C@H]1O [Compound 8, kanamycin A, reference compound] | 2 µg/mL (≈ 4.13 µM) | 16 µg/mL (≈ 33 µM) | NA (NA represents no activity at 128 μg/mL) | NA (NA represents no activity at 128 μg/mL) | 4 µg/mL (≈ 8.26 µM) | antibacterial activity, 6′-amino vs 6′-hydroxy pseudotrisaccharides [7]: more active; antibacterial activity, 3″-amino vs 3″-hydroxy derivatives [7]: increased activity
NC1CC(N)C(OC2OC(CO)C(O)C(O)C2O)C(O)C1O (stereo not shown) [Compound 9, 2′-deamino-2′-hydroxyparomamine] |  | NA (NA represents no activity at 128 μg/mL) | NA (NA represents no activity at 128 μg/mL) | NA (NA represents no activity at 128 μg/mL) | 128 µg/mL (≈ 395 µM) | 
NCC1OC(OC2C(N)CC(N)C(O)C2O)C(O)C(O)C1O (stereo not shown) [Compound 10, 2′-deamino-2′-hydroxyneamine] | 64 µg/mL (≈ 198 µM) | 128 µg/mL (≈ 396 µM) | NA (NA represents no activity at 128 μg/mL) | NA (NA represents no activity at 128 μg/mL) | 64 µg/mL (≈ 198 µM) | antibacterial activity, 6′-amino vs 6′-hydroxy pseudodisaccharides [7]: more active
N[C@@H]1C[C@H](N)[C@@H](O[C@H]2O[C@H](CO)[C@@H](O)[C@H](O)[C@H]2O)C(O)[C@H]1O[C@H]1O[C@H](CO)[C@@H](O)[C@H](O)[C@H]1O (stereo partly shown) [Compound 11, 3″-deamino-3″-hydroxykanamycin X] |  | NA (NA represents no activity at 128 μg/mL) | NA (NA represents no activity at 128 μg/mL) | NA (NA represents no activity at 128 μg/mL) | NA (NA represents no activity at 128 μg/mL) | 
N[C@@H]1[C@@H](O)[C@@H](O[C@@H]2[C@@H](O)[C@H](O[C@H]3O[C@H](CO)[C@@H](O)[C@H](O)[C@H]3O)[C@@H](N)C[C@H]2N)O[C@H](CO)[C@H]1O [Compound 12, kanamycin X] | 16 µg/mL (≈ 33 µM) | 64 µg/mL (≈ 132 µM) | NA (NA represents no activity at 128 μg/mL) | NA (NA represents no activity at 128 μg/mL) | 16 µg/mL (≈ 33 µM) | antibacterial activity, 3″-amino vs 3″-hydroxy derivatives [7]: increased activity
NC[C@H]1O[C@H](O[C@H]2[C@H](O)[C@@H](O[C@H]3O[C@H](CO)[C@@H](O)[C@H](O)[C@H]3O)[C@H](N)C[C@@H]2N)[C@H](N)[C@@H](O)[C@@H]1O [Compound 13, 3″-deamino-3″-hydroxykanamycin B] |  | NA (NA represents no activity at 128 μg/mL) | NA (NA represents no activity at 128 μg/mL) | NA (NA represents no activity at 128 μg/mL) | 128 µg/mL (≈ 264 µM) | 
NCC[C@H](O)C(=O)N[C@@H]1C[C@H](N)[C@@H](O[C@H]2O[C@H](CN)[C@@H](O)[C@H](O)[C@H]2O)[C@H](O)[C@H]1O[C@H]1O[C@H](CO)[C@@H](O)[C@H](N)[C@H]1O [Compound 15, amikacin, reference compound] |  |  |  |  |  | MIC [1]: 64 µg/mL (≈ 109 µM); MIC ([2]; Escherichia coli, ATCC25922): 128 µg/mL (≈ 219 µM); MIC [3, 16]: ≤ 0.25 µg/mL; MIC [4, 17]: > 128 µg/mL; MIC / activity [4]: no activity; MIC [5, 18]: 32 µg/mL (≈ 54.6 µM); MIC ([6]; Escherichia coli): 128 µg/mL (≈ 219 µM)
NCC[C@H](O)C(=O)N[C@@H]1C[C@H](N)[C@@H](O[C@H]2O[C@H](CO)[C@@H](O)[C@H](O)[C@H]2O)[C@H](O)[C@H]1O[C@H]1O[C@H](CO)[C@@H](O)[C@H](N)[C@H]1O [Compound 17, 1-N-AHBA-kanamycin X] |  |  |  |  |  | MIC [1]: 16 µg/mL (≈ 27.3 µM); MIC ([2]; Escherichia coli, ATCC25922): 16 µg/mL (≈ 27.3 µM); antibacterial activity ([7]; against all kanamycin and amikacin-resistant test strains): strong antibacterial activity; antibacterial activity compared with amikacin (compound 15) ([7]; against all the test strains): improved antibacterial activity; MIC [3, 16]: 0.25 µg/mL (≈ 0.426 µM); MIC [4, 17]: 64 µg/mL (≈ 109 µM); antibacterial effect ([4]; amikacin-resistant P. aeruginosa): antibacterial effect; MIC / activity [4]: ~64; MIC [5, 18]: 16 µg/mL (≈ 27.3 µM); MIC ([6]; Escherichia coli, E. coli CCARM 1A020, kanamycin-sensitive clinically isolated strain, read-out: MIC): 32 µg/mL (≈ 54.6 µM)
NC[C@H]1O[C@H](O[C@H]2[C@H](O)[C@@H](O[C@H]3O[C@H](CO)[C@@H](O)[C@H](N)[C@H]3O)[C@H](N)C[C@@H]2N)[C@H](O)[C@@H](O)[C@@H]1O [kanamycin] |  |  |  |  |  | kanamycin concentration the strain is resistant to ([8]; S. venezuelae transformants expressing resistance genes gtmF-gtmK-gtmL): > 10.0 mg/mL; kanamycin concentration the strain is resistant to ([8]; control strains): 0.001 mg/mL
kanamycin D [Compound 14] |  | NA (NA represents no activity at 128 μg/mL) | NA (NA represents no activity at 128 μg/mL) | NA (NA represents no activity at 128 μg/mL) | 128 µg/mL | 
